Experimental data as given in ChEMBL document CHEMBL1124634, “Synthesis and antirhinovirus activity of 6-(dimethylamino)-2-(trifluoromethyl)-9-(substituted benzyl)-9H-purines” (J Med Chem, 1989).

Each molecule was assayed on Human rhinovirus sp. (assay: Antiviral activity against rhinoviral 15 serotype in a plaque inhibition assay using monolayers of M-HeLa cells).
Format: functional, organism-based

In order of falling IC50:
1. CN(C)c1nc(C(F)(F)F)nc2c1ncn2Cc1ccc(Br)cc1  5.7 µM
2. CSc1ccc(Cn2cnc3c(N(C)C)nc(C(F)(F)F)nc32)cc1  4.5 µM

Each molecule was assayed on Human rhinovirus sp. (assay: Percent inhibitory activity at 8 uM against rhinoviral 4 serotype in a plaque inhibition assay using monolayers of M-HeLa cells).
Format: functional

For `Cc1cc(Cl)ccc1Cn1cnc2c(N(C)C)nc(C(F)(F)F)nc21`, the Inhibition was 25%.

The molecules below were run on Human rhinovirus sp. (assay: Antiviral activity against rhinoviral 8 serotype in a plaque inhibition assay using monolayers of M-HeLa cells).
Format: functional, organism-based

In order of falling IC50:
1. Cc1cc(Cl)ccc1Cn1cnc2c(N(C)C)nc(C(F)(F)F)nc21  9.5 µM
2. CN(C)c1nc(C(F)(F)F)nc2c1ncn2Cc1ccc(Br)cc1  8.3 µM
3. CSc1ccc(Cn2cnc3c(N(C)C)nc(C(F)(F)F)nc32)cc1  7.2 µM

Each molecule was assayed on Human rhinovirus sp. (assay: Antiviral activity against rhinoviral 2 serotype in a plaque inhibition assay using monolayers of M-HeLa cells).
Format: functional, organism-based

In order of rising IC50:
1. CSc1ccc(Cn2cnc3c(N(C)C)nc(C(F)(F)F)nc32)cc1  4.5 µM
2. CN(C)c1nc(C(F)(F)F)nc2c1ncn2Cc1ccc(Br)cc1  7.3 µM
3. Cc1cc(Cl)ccc1Cn1cnc2c(N(C)C)nc(C(F)(F)F)nc21  9 µM

These molecules were tested on Human rhinovirus sp. (assay: Antiviral activity against rhinoviral 21 serotype in a plaque inhibition assay using monolayers of M-HeLa cells).
Format: functional, organism-based

For `CN(C)c1nc(C(F)(F)F)nc2c1ncn2Cc1ccc(Br)cc1`, the IC50 was 5 µM.

These molecules were tested on Human rhinovirus sp. (assay: Antiviral activity against rhinoviral-1B serotype in a plaque inhibition assay using monolayers of M-HeLa cells).
Format: functional, organism-based

In order of falling IC50:
1. Cc1cc(Cl)ccc1Cn1cnc2c(N(C)C)nc(C(F)(F)F)nc21  0.12 µM
2. CSc1ccc(Cn2cnc3c(N(C)C)nc(C(F)(F)F)nc32)cc1  0.07 µM
3. CN(C)c1nc(C(F)(F)F)nc2c1ncn2Cc1ccc(Br)cc1  0.03 µM

These molecules were tested on Human rhinovirus sp. (assay: Antiviral activity against rhinoviral 18 serotype in a plaque inhibition assay using monolayers of M-HeLa cells).
Format: functional, organism-based

In order of falling IC50:
1. CSc1ccc(Cn2cnc3c(N(C)C)nc(C(F)(F)F)nc32)cc1  10 µM
2. CN(C)c1nc(C(F)(F)F)nc2c1ncn2Cc1ccc(Br)cc1  7.5 µM

Each molecule was assayed on Human rhinovirus sp. (assay: Percent inhibitory activity at 8 uM against rhinoviral 5 serotype in a plaque inhibition assay using monolayers of M-HeLa cells).
Format: functional

`CN(C)c1nc(C(F)(F)F)nc2c1ncn2Cc1ccc(Br)cc1` showed an Inhibition of 37%.

The molecules below were run on Human rhinovirus sp. (assay: Percent inhibitory activity at 8 uM against rhinoviral 13 serotype in a plaque inhibition assay using monolayers of M-HeLa cells).
Format: functional

In order of rising Inhibition:
1. Cc1cc(Cl)ccc1Cn1cnc2c(N(C)C)nc(C(F)(F)F)nc21  23%
2. CSc1ccc(Cn2cnc3c(N(C)C)nc(C(F)(F)F)nc32)cc1  35%
3. CN(C)c1nc(C(F)(F)F)nc2c1ncn2Cc1ccc(Br)cc1  40%

Each molecule was assayed on Human rhinovirus sp. (assay: Antiviral activity against rhinoviral 31 serotype in a plaque inhibition assay using monolayers of M-HeLa cells).
Format: functional, organism-based

In order of falling IC50:
1. Cc1cc(Cl)ccc1Cn1cnc2c(N(C)C)nc(C(F)(F)F)nc21  12 µM
2. CSc1ccc(Cn2cnc3c(N(C)C)nc(C(F)(F)F)nc32)cc1  8.6 µM
3. CN(C)c1nc(C(F)(F)F)nc2c1ncn2Cc1ccc(Br)cc1  5.5 µM

What follows are molecules tested on Human rhinovirus sp. (assay: Percent inhibitory activity at 8 uM against rhinoviral 29 serotype in a plaque inhibition assay using monolayers of M-HeLa cells).
Format: functional

Molecule `Cc1cc(Cl)ccc1Cn1cnc2c(N(C)C)nc(C(F)(F)F)nc21` has an Inhibition of 32%.

Each molecule was assayed on Human rhinovirus sp. (assay: Antiviral activity against rhinoviral 19 serotype in a plaque inhibition assay using monolayers of M-HeLa cells).
Format: functional, organism-based

`CSc1ccc(Cn2cnc3c(N(C)C)nc(C(F)(F)F)nc32)cc1` showed an IC50 of 2.5 µM.

The molecules below were run on Human rhinovirus sp. (assay: Antiviral activity against rhinoviral 16 serotype in a plaque inhibition assay using monolayers of M-HeLa cells).
Format: functional, organism-based

In order of falling IC50:
1. Cc1cc(Cl)ccc1Cn1cnc2c(N(C)C)nc(C(F)(F)F)nc21  1.9 µM
2. CN(C)c1nc(C(F)(F)F)nc2c1ncn2Cc1ccc(Br)cc1  1.2 µM
3. CSc1ccc(Cn2cnc3c(N(C)C)nc(C(F)(F)F)nc32)cc1  0.81 µM

Each molecule was assayed on Human rhinovirus sp. (assay: Antiviral activity against rhinoviral 30 serotype in a plaque inhibition assay using monolayers of M-HeLa cells).
Format: functional, organism-based

In order of falling IC50:
1. CSc1ccc(Cn2cnc3c(N(C)C)nc(C(F)(F)F)nc32)cc1  7.9 µM
2. CN(C)c1nc(C(F)(F)F)nc2c1ncn2Cc1ccc(Br)cc1  4.6 µM

What follows are molecules tested on Human rhinovirus sp. (assay: Antiviral activity against rhinoviral 9 serotype in a plaque inhibition assay using monolayers of M-HeLa cells).
Format: functional, organism-based

In order of falling IC50:
1. Cc1cc(Cl)ccc1Cn1cnc2c(N(C)C)nc(C(F)(F)F)nc21  2 µM
2. CSc1ccc(Cn2cnc3c(N(C)C)nc(C(F)(F)F)nc32)cc1  1 µM
3. CN(C)c1nc(C(F)(F)F)nc2c1ncn2Cc1ccc(Br)cc1  0.7 µM

These molecules were tested on Human rhinovirus sp. (assay: Percent inhibitory activity at 8 uM against rhinoviral 19s erotype in a plaque inhibition assay using monolayers of M-HeLa cells).
Format: functional

For `CN(C)c1nc(C(F)(F)F)nc2c1ncn2Cc1ccc(Br)cc1`, the Inhibition was 27%.

What follows are molecules tested on Human rhinovirus sp. (assay: Percent inhibitory activity at 8 uM against rhinoviral 21 serotype in a plaque inhibition assay using monolayers of M-HeLa cells).
Format: functional

In order of rising Inhibition:
1. Cc1cc(Cl)ccc1Cn1cnc2c(N(C)C)nc(C(F)(F)F)nc21  22%
2. CSc1ccc(Cn2cnc3c(N(C)C)nc(C(F)(F)F)nc32)cc1  35%

What follows are molecules tested on Human rhinovirus sp. (assay: Percent inhibitory activity at 8 uM against rhinoviral 15 serotype in a plaque inhibition assay using monolayers of M-HeLa cells).
Format: functional

Work on `Cc1cc(Cl)ccc1Cn1cnc2c(N(C)C)nc(C(F)(F)F)nc21` yielded an Inhibition of 11%.

What follows are molecules tested on Human rhinovirus sp. (assay: Antiviral activity against rhinoviral 12 serotype in a plaque inhibition assay using monolayers of M-HeLa cells).
Format: functional, organism-based

In order of falling IC50:
1. CN(C)c1nc(C(F)(F)F)nc2c1ncn2Cc1ccc(Br)cc1  9.5 µM
2. Cc1cc(Cl)ccc1Cn1cnc2c(N(C)C)nc(C(F)(F)F)nc21  7.8 µM
3. CSc1ccc(Cn2cnc3c(N(C)C)nc(C(F)(F)F)nc32)cc1  5.2 µM

These molecules were tested on Human rhinovirus sp. (assay: Antiviral activity against rhinoviral 14 serotype in a plaque inhibition assay using monolayers of M-HeLa cells).
Format: functional, organism-based

In order of falling IC50:
1. Cc1cc(Cl)ccc1Cn1cnc2c(N(C)C)nc(C(F)(F)F)nc21  9 µM
2. CN(C)c1nc(C(F)(F)F)nc2c1ncn2Cc1ccc(Br)cc1  8.1 µM
3. CSc1ccc(Cn2cnc3c(N(C)C)nc(C(F)(F)F)nc32)cc1  7.6 µM

The molecules below were run on Human rhinovirus sp. (assay: Antiviral activity against rhinoviral 3 serotype in a plaque inhibition assay using monolayers of M-HeLa cells).
Format: functional, organism-based

Molecule `CN(C)c1nc(C(F)(F)F)nc2c1ncn2Cc1ccc(Br)cc1` has an IC50 of 8 µM.

What follows are molecules tested on Human rhinovirus sp. (assay: Antiviral activity against rhinoviral-18 serotype in a plaque inhibition assay using monolayers of M-HeLa cells).
Format: functional, organism-based

`Cc1cc(Cl)ccc1Cn1cnc2c(N(C)C)nc(C(F)(F)F)nc21` gave an IC50 of 10 µM.

What follows are molecules tested on Human rhinovirus sp. (assay: Percent inhibitory activity at 8 uM against rhinoviral 30 serotype in a plaque inhibition assay using monolayers of M-HeLa cells).
Format: functional

Work on `Cc1cc(Cl)ccc1Cn1cnc2c(N(C)C)nc(C(F)(F)F)nc21` yielded an Inhibition of 28%.

What follows are molecules tested on Human rhinovirus sp. (assay: Antiviral activity against rhinoviral 29 serotype in a plaque inhibition assay using monolayers of M-HeLa cells).
Format: functional, organism-based

In order of rising IC50:
1. CSc1ccc(Cn2cnc3c(N(C)C)nc(C(F)(F)F)nc32)cc1  2.6 µM
2. CN(C)c1nc(C(F)(F)F)nc2c1ncn2Cc1ccc(Br)cc1  3.2 µM

What follows are molecules tested on Human rhinovirus sp. (assay: Antiviral activity against rhinoviral-19 serotype in a plaque inhibition assay using monolayers of M-HeLa cells).
Format: functional, organism-based

Work on `Cc1cc(Cl)ccc1Cn1cnc2c(N(C)C)nc(C(F)(F)F)nc21` yielded an IC50 of 10 µM.

These molecules were tested on Human rhinovirus sp. (assay: Percent inhibitory activity at 8 uM against rhinoviral 3 serotype in a plaque inhibition assay using monolayers of M-HeLa cells).
Format: functional

In order of rising Inhibition:
1. Cc1cc(Cl)ccc1Cn1cnc2c(N(C)C)nc(C(F)(F)F)nc21  29%
2. CSc1ccc(Cn2cnc3c(N(C)C)nc(C(F)(F)F)nc32)cc1  39%

What follows are molecules tested on Human rhinovirus sp. (assay: Antiviral activity against rhinoviral-1A serotype in a plaque inhibition assay using monolayers of M-HeLa cells).
Format: functional, organism-based

In order of rising IC50:
1. CSc1ccc(Cn2cnc3c(N(C)C)nc(C(F)(F)F)nc32)cc1  0.57 µM
2. CN(C)c1nc(C(F)(F)F)nc2c1ncn2Cc1ccc(Br)cc1  0.76 µM
3. Cc1cc(Cl)ccc1Cn1cnc2c(N(C)C)nc(C(F)(F)F)nc21  0.82 µM

The molecules below were run on Human rhinovirus sp. (assay: Antiviral activity against rhinoviral 4 serotype in a plaque inhibition assay using monolayers of M-HeLa cells).
Format: functional, organism-based

In order of falling IC50:
1. CN(C)c1nc(C(F)(F)F)nc2c1ncn2Cc1ccc(Br)cc1  7.6 µM
2. CSc1ccc(Cn2cnc3c(N(C)C)nc(C(F)(F)F)nc32)cc1  3.8 µM

What follows are molecules tested on Human rhinovirus sp. (assay: Antiviral activity against rhinoviral 5 serotype in a plaque inhibition assay using monolayers of M-HeLa cells).
Format: functional, organism-based

`Cc1cc(Cl)ccc1Cn1cnc2c(N(C)C)nc(C(F)(F)F)nc21` and `CSc1ccc(Cn2cnc3c(N(C)C)nc(C(F)(F)F)nc32)cc1` cannot be ordered by IC50: > 8 µM for the first, > 8 µM for the second.
